From publication PMC7074166, “Screening for Small Molecule Modulators of Trypanosoma brucei Hsp70 Chaperone Activity Based upon Alcyonarian Coral-Derived Natural Products” (Marine Drugs, 2020)
Where two headings read alike, the source gives them in different places.

What was measured:
[1] = tested on: HeLa (human cervix adenocarcinoma) cells; assay: Resazurin-based cytotoxicity assay on a mammalian cell line; settings: 20 μM, Figure S2
Experimental: (§1) HeLa cells were grown and maintained in a culture medium comprised of Dulbecco’s Modified Eagle’s Medium (DMEM) with 5 mM L-glutamine (Lonza, Basel, Switzerland), supplemented with 10% (v/v) heat inactivated foetal bovine serum and antibiotics (penicillin/streptomycin/fungizone-PSF) in a humidified chamber at 37 °C with an atmosphere of 5% CO2. To carry out passaging of cells, cultures were treated with 1% trypsin (w/v) to lift cells, which were then washed in 1 × phosphate buffered saline (PBS) before being re-seeded into culture flasks. For assessment of the cytotoxic effects, the small molecules were added to HeLa cells at a fixed concentration of 20 μM. After an incubation period of 24 h, the number of cells surviving drug exposure were determined using a resazurin-based cytotoxicity assay. The resazurin-based cytotoxicity assay was conducted as previously mentioned. Results were expressed as % cell—the resorufin fluorescence in small molecule-treated wells relative to untreated controls. Assessment of each small molecule was conducted in duplicate, with error bars representing standard deviation (SD).

[2] = tested on: bloodstream form T. b. brucei parasites; assay: Resazurin-based anti-trypanosomal assay on bloodstream form T. b. brucei parasites; assay type: cell-based, Trypanosoma brucei brucei; settings: Trypanosoma brucei
Experimental: Bloodstream form T. b. brucei Lister 927 variant 221 strain parasites were cultured in filter sterilized complete Iscoves Modified Dulbeccos Media (IMDM) based HM1-9 medium (IMDM base powder, […] sodium bicarbonate, 1 mM hypoxanthine, 1 mM sodium pyruvate, 0.16 mM thymidine, 0.05 mM bathocuprone sulphate acid, 10% (v/v) heat inactivated foetal bovine serum, 1.5 mM L-cysteine, 0.2 mM β-mercaptoethanol, pH 7.5) in a humidified chamber at 37 °C with an atmosphere of 5% CO2. Parasite growth was monitored using a Neubauer haemocytometer to count the cell number, after which cells were diluted, according to their density, in the described pre-warmed media.
All compounds of interest were resuspended to stocks of 30 mM in DMSO and stored at −80 °C prior to use in in vitro experiments. For assessment of anti-trypanosomal activity, compounds were added to in vitro cultures of bloodstream form T. b. brucei parasites (1 × 10^5 cells/mL) in 96-well plates at a fixed concentration of 20 μM. After an incubation period of 48 h, the number of parasites surviving drug exposure were determined using a resazurin-based cytotoxicity assay. Resazurin is an oxidation–reduction sensitive dye that is reduced by living cells to resorufin. Resorufin is a fluorophore (Excitation560/Emission590) and thus was quantified in a multi-well fluorescence plate reader. Results are expressed as % parasite viability—the resorufin fluorescence in small molecule-treated wells relative to untreated controls. Assessment of each small molecule was conducted in duplicate, with error bars representing standard deviation (SD). […] The compounds were added to in vitro cultures of bloodstream form T. b. brucei parasites (1 × 10^5 cells/mL) in 96-well plates in a 3-fold dilution series with 100 μM as the highest concentration. After an incubation period of 48 h, the number of parasites surviving drug exposure were determined as previously mentioned. The % parasite viability was determined as previously mentioned. The IC50 (the concentration of compound required to decrease cell viability of T. b. brucei parasites by 50% compared to those grown in the absence of the compound) values for each of the compounds were determined from a dose–response curve by non-linear regression generated using GraphPad Prism® (v. 7.0; San Diego, CA, USA) software. For comparative purposes, pentamidine at a fixed concentration of 1 μM was employed as a drug standard.

[3] = molecular target: T1, TbHsp70 / Tbj2 (Trypanosoma brucei brucei, UniProt P11145); assay: Tbj2-stimulated ATPase activity assay, TbHsp70; assay type: biochemical; settings: TbHsp70, 150 μM, Figure 5A
T1 construct: His-tag; made in house; host or cells: Escherichia coli (Tbj2: E. coli BL21 (DE3))
Experimental: (§2) The determination of the ATPase activity of the Hsp70 proteins was performed using the high throughput colorimetric ATPase assay kit (Innova Biosciences, Cambridge, UK). This method enables the quantification of the inorganic phosphate (Pi) released from ATP hydrolysis by an enzyme. Briefly, the molecular chaperones were prepared in ATPase assay buffer (100 mM Tris-HCl, 7.5, 2 mM MgCl2, 50 mM KCl, 0.5 mM DTT) and incubated with ATP (0–2 mM) for 1 h at 37 °C. […] The samples containing Pi hydrolysed from ATP were incubated with the PiColorLock™ solution, which is a malachite green dye solution that in the presence of Pi changes absorbance due to generation of molybdate-phosphate complexes. The absorbance was measured at 595 nm using a Powerwave 96-well plate reader (BioTek Instruments, Inc., Winooski, VT, USA), and absorbance values were converted to phosphate concentrations using a standard curve of absorbance vs. phosphate concentration based on a set of Pi standards provided by the supplier assayed along with the samples. All samples were corrected for spontaneous breakdown of ATP observed in a control experiment in the absence of protein. The trypanosomal and human Hsp70s were used at 0.8 μM, and the J-proteins were used at 0.4 μM. An initial screen of the modulatory effects of the compounds on the ATPase activity of the Hsp70s was conducted using 300 μM of the compounds. Compounds identified to have a modulatory effect on the basal and J-protein-stimulated ATPase activity of Hsp70 were used at varying concentrations. The modulatory effect of the selected compounds on the basal and J-protein stimulated ATPase activity of the T. brucei Hsp70s was represented as fold change with the basal and J-protein stimulated ATPase activity of the Hsp70s taken as 1 respectively. These experiments were conducted on three independently purified batches of proteins, but due to limited availability of the selected compounds, each assay was conducted in duplicate on each batch of protein. In control reactions to evaluate the effect of DMSO on basal and J-protein stimulated ATPase activity of the Hsp70s, the solvent was added to a final concentration of 1% (v/v) in the assay. The assays were performed in duplicate on three independently purified batches of proteins.

[4] = tested on: TbHsp70.4 / Tbj2; assay: Tbj2-stimulated ATPase activity assay, TbHsp70.4; assay type: biochemical, Trypanosoma brucei; settings: TbHsp70.4, 150 μM, Figure 5B
Experimental: as §2

[5] = molecular target: T2, TbHsp70 (Trypanosoma brucei brucei, UniProt P11145); assay: Basal ATPase activity assay, TbHsp70; assay type: biochemical
T2 construct: His-tag; made in house; host or cells: Escherichia coli
Experimental: (§3) The determination of the ATPase activity of the Hsp70 proteins was performed using the high throughput colorimetric ATPase assay kit (Innova Biosciences, Cambridge, UK). This method enables the quantification of the inorganic phosphate (Pi) released from ATP hydrolysis by an enzyme. Briefly, the molecular chaperones were prepared in ATPase assay buffer (100 mM Tris-HCl, 7.5, 2 mM MgCl2, 50 mM KCl, 0.5 mM DTT) and incubated with ATP (0–2 mM) for 1 h at 37 °C. […] The samples containing Pi hydrolysed from ATP were incubated with the PiColorLock™ solution, which is a malachite green dye solution that in the presence of Pi changes absorbance due to generation of molybdate-phosphate complexes. The absorbance was measured at 595 nm using a Powerwave 96-well plate reader (BioTek Instruments, Inc., Winooski, VT, USA), and absorbance values were converted to phosphate concentrations using a standard curve of absorbance vs. phosphate concentration based on a set of Pi standards provided by the supplier assayed along with the samples. All samples were corrected for spontaneous breakdown of ATP observed in a control experiment in the absence of protein. The trypanosomal and human Hsp70s were used at 0.8 μM, and the J-proteins were used at 0.4 μM. An initial screen of the modulatory effects of the compounds on the ATPase activity of the Hsp70s was conducted using 300 μM of the compounds. […]

[6] = tested on: TbHsp70.4; assay: Basal ATPase activity assay, TbHsp70.4; assay type: biochemical, Trypanosoma brucei; settings: TbHsp70.4, 1 μM
Experimental: as §3

[7] = Resazurin-based cytotoxicity assay on a mammalian cell line; parameters: species or system human; settings: human; HeLa cells, 10 μM
Experimental: as §1

[8] = tested on: P. falciparum; parameters: method as in PMID 21426241; settings: read-out: IC50 against P. falciparum; cited from earlier work
[9] = tested on: plasmodial Hsp70s; parameters: method as in PMID 24854538; settings: cited from earlier work
[10] = tested on: human Hsp70; parameters: method as in PMID 24854538; settings: cited from earlier work
[11] = molecular target: phosphodiesterase-4D; parameters: method as in PMID 24473168; settings: read-out: IC50 against phosphodiesterase-4D; cited from earlier work
[12] = T. b. brucei parasites, stated as bound, read-out: IC50 values
[13] = Table 1, T. b. brucei parasites cultured in vitro, 48 h, dose-response, read-out: IC50/μM
[14] = Table S1, 48 select compounds, T. b. brucei, 48 h, read-out: IC50/

T1 sequence (P11145 whole entry): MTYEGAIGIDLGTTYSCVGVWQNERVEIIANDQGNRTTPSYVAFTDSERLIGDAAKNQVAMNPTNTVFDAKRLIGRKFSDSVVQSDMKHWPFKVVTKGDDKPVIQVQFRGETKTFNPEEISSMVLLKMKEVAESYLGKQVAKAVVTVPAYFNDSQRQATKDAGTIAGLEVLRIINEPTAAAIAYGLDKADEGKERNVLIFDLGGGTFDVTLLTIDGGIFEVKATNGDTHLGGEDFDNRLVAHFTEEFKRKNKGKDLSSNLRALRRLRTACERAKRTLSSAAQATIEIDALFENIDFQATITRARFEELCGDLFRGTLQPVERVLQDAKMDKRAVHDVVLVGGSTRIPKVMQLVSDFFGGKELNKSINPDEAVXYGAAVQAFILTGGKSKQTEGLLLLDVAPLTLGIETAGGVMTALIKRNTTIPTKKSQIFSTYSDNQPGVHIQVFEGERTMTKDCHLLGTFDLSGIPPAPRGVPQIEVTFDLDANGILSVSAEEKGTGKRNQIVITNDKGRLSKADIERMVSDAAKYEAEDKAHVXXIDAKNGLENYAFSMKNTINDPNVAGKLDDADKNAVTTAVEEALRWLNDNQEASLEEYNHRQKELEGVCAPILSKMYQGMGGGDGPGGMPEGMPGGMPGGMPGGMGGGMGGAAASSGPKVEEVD
T2 sequence (P11145 whole entry): as above

Row | SMILES | IC50 [2, 12] [µM] | IC50 [2, 13] [µM] | effect of order of addition (compound vs Tbj2) on inhibition of J-stimulated ATPase activity [3] | effect of order of addition (compound vs Tbj2) on inhibition of J-stimulated ATPase activity [4] | IC50 [2, 14] [µM] | other results
1 | CC(C)=CCC/C(C)=C/Cn1cnc(=N)c2ncn(C/C=C(\C)CCC=C(C)C)c21 [Compound 5, 3,9-bis((E)-3,7-dimethylocta-2,6-dien-1-yl)-3,9-dihydro-6H-purin-6-imine] |  |  |  |  |  | toxicity to HeLa cells [1]: toxic
2 | CC(C)=CCC/C(C)=C/Cn1cnc2c1c(=O)[nH]c(=O)n2C/C=C(\C)CCC=C(C)C [Compound 27, 3,7-Bis((E)-3,7-dimethylocta-2,6-dien-1-yl)-3,7-dihydro-1H-purine-2,6-dione] | < 7 | 2 | no significant difference | no significant difference |  | 
3 | CC(C)=CCC/C(C)=C/CCC(C)=CCn1cnc2c1c(=O)[nH]c(=O)n2CC=C(C)CC/C=C(\C)CCC=C(C)C [Compound 28, 3,7-Bis((6E)-3,7,11-trimethyldodeca-2,6,10-trien-1-yl)-3,7-dihydro-1H-purine-2,6-dione] | < 7 | 1.2 | no significant difference | no significant difference | 1.15 | 
4 | CC(C)=CCC/C(C)=C/CC/C(C)=C/Cn1cnc2c1c(=O)[nH]c(=O)n2C [Compound 31, 3-methyl-7-((2E,6E)-3,7,11-trimethyldodeca-2,6,10-trien-1-yl)-3,7-dihydro-1H-purine-2,6-dione] | < 7 | 1.9 | no significant difference | no significant difference | 1.91 | 
5 | CC(C)=CCC/C(C)=C/CCC(C)=CCn1cnc2c(cnn2CC=C(C)CC/C=C(\C)CCC=C(C)C)c1=O [Compound 47, 1,5-Bis((6E)-3,7,11-trimethyldodeca-2,6,10-trien-1-yl)-1,5-dihydro-4H-pyrazolo[3,4-d]pyrimidin-4-one] | < 7 | 1.2 | no significant difference | no significant difference | 1.23 | inhibition at 1 µM ([5]; TbHsp70, 1 μM): 44%; inhibition of basal ATPase activity [6]: 66%
6 | CC(C)=CCC/C(C)=C/Cn1ccc(=NC=O)n(C/C=C(\C)CCC=C(C)C)c1=O [Compound 60, N-(-1,3-Bis((E)-3,7-dimethylocta-2,6-dien-1-yl)-2-oxo-2,3-dihydropyrimidin-4(1H)-ylidene)formamide] | < 7 | 4.9 |  |  | 4.89 | inhibition at 300 µM ([5]; TbHsp70, 300 μM, Figure S6): 39%
7 | CC(C)=CCC/C(C)=C/Cn1ccc(=N)n(C/C=C(\C)CCC=C(C)C)c1=O [Compound 61, 1,3-bis((E)-3,7-dimethylocta-2,6-dien-1-yl)-4-imino-3,4-dihydropyrimidin-2(1H)-one] |  |  |  |  |  | toxicity to HeLa cells [1]: toxic
8 | CC(C)=CCC/C(C)=C/CCC(C)=CCn1ccc(=NC=O)n(CC=C(C)CC/C=C(\C)CCC=C(C)C)c1=O [Compound 62, N-(-2-Oxo-1,3-bis((6E)-3,7,11-trimethyldodeca-2,6,10-trien-1-yl)-2,3-dihydropyrimidin-4(1H)-ylidene)formamide] |  |  |  |  |  | toxicity to HeLa cells [1]: toxic
9 | CC(C)=CCC/C(C)=C/CCC(C)=CCn1ccc(=N)n(CC=C(C)CC/C=C(\C)CCC=C(C)C)c1=O [Compound 63, 4-imino-1,3-bis((6E)-3,7,11-trimethyldodeca-2,6,10-trien-1-yl)-3,4-dihydropyrimidin-2(1H)-one] | < 7 | 2.1 | no significant difference | no significant difference | 2.05 | 
10 | CC(=O)N(C)C/C=C(\C)CC/C=C(\C)CC/C=C(\C)CCC=C(C)C [Compound 88, N-Methyl-N-((2E,6E,10E)-3,7,11,15-tetramethylhexadeca-2,6,10,14-tetraen-1-yl)acetamide] |  | 38.4 |  |  |  | 
11 | CC[C@H]1CN2CCc3cc(OC)c(OC)cc3[C@@H]2C[C@@H]1C[C@H]1NCCc2cc(OC)c(OC)cc21 [Emetine, reference compound] |  |  |  |  |  | viability at 24 h, 10 µM [7]: 6.03%
12 | C/C(=C/C(=O)CC(C)C)CCC/C(C)=C/CC/C(C)=C/Cn1cnc2c1c(=O)ncn2C [malonganenone A] |  |  |  |  |  | IC50 [8]: 810 nM; effect on steady-state and J-protein stimulated ATPase activity [9]: inhibited; effect on steady-state and J-protein stimulated ATPase activity [10]: not that of human Hsp70
13 | C/C(=C/C(=O)CC(C)C)CCC/C(C)=C/CC/C(C)=C/CNC=O [malonganenone C] |  |  |  |  |  | IC50 [8]: 5200 nM
14 | CC(C)=CC(=O)C/C(C)=C/CC/C(C)=C/CC/C(C)=C/Cn1cnc2c1c(=O)ncn2C [malonganenone L] |  |  |  |  |  | IC50 [11]: 8500 nM
15 | CNC(=O)c1c(N(C)C=O)ncn1C/C=C(\C)CC/C=C(\C)CCC/C(C)=C\C(=O)C=C(C)C [malonganenone Q] |  |  |  |  |  | IC50 [11]: 20300 nM
16 | N=C(N)c1ccc(OCCCCCOc2ccc(C(=N)N)cc2)cc1 [pentamidine, reference compound] |  |  |  |  |  | IC50 ([2]; T. b. brucei parasites cultured in vitro, positive control, read-out: IC50 of drug standard): 0.0053 µM
